# Results taken from patent publication US20080051387A1, “TETRAHYDROPYRIDO[3,4-D]PYRIMIDINES AND RELATED ANALOGUES” (priority 2006, published 2008).
# Target: T1, chimeric human H3 receptor (Homo sapiens, UniProt Q9Y5N1)
# T1 construct: rat Galpha-i2 (Gnai2, rat); made in house; host or cells: Sf9 insect cells (baculovirus); P2 membranes
# Assay: Chimeric human H3 receptor screening GTP binding assay (inhibition of histamine-stimulated GTP-gamma35S binding, Example 8)
# Type: biochemical
# Details: 1 h; assay described in Example 8; symbol "!" in column headed Ki; read-out: Ki ("!": percent inhibition of agonist-induced GTP-gammaS binding to H3)
# Summary of the method: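 Compound tested at 4 μM against 1 μM histamine stimulation; 125 pM GTP-gamma35S binding measured by filtration and scintillation after 60 min at room temperature. Membranes from Sf9 cells expressing chimeric human H3 plus G-protein subunits, in Tris pH 7.4/NaCl/MgCl2/GDP buffer; values are % inhibition after nonspecific subtraction.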
# T1 sequence (Q9Y5N1 with tags, fused parts or gaps): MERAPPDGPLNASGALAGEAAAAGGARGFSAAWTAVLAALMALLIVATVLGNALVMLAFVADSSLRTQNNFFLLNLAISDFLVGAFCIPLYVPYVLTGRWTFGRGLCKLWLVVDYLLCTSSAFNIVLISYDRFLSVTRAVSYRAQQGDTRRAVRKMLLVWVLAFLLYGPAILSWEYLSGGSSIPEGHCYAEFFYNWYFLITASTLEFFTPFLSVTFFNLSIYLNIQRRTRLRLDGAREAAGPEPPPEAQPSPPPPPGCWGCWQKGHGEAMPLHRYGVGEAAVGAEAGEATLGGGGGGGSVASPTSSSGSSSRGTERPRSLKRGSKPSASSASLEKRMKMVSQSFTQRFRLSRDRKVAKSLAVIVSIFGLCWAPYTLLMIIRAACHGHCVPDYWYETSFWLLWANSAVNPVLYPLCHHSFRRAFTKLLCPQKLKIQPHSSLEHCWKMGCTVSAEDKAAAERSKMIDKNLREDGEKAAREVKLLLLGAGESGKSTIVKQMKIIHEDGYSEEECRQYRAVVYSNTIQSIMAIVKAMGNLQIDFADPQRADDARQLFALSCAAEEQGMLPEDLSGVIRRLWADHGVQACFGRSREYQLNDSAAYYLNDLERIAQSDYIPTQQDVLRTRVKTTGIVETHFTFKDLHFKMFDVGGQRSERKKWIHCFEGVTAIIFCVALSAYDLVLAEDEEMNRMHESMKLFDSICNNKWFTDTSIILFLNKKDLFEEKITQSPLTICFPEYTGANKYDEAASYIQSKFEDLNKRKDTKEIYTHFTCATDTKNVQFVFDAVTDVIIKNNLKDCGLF
row,SMILES,inhibition at 4 µM [%]
1,"O=C(c1ccccc1C(F)(F)F)N1CCc2cnc(N3CCN(C4CCC4)CC3)nc2CC1 [Compound 439, 2-(4-cyclobutylpiperazin-1-yl)-7-[2-(trifluoromethyl)benzoyl]-6,7,8,9-tetrahydro-5H-pyrimido[4,5-d]azepine]",≥ 90
2,"COc1cc(/C=C/C(=O)N2CCc3cnc(N4CCN(C5CCC5)CC4)nc3CC2)cc(OC)c1OC [Compound 566, 2-(4-cyclobutylpiperazin-1-yl)-7-[(2E)-3-(3,4,5-trimethoxyphenyl)prop-2-enoyl]-6,7,8,9-tetrahydro-5H-pyrimido[4,5-d]azepine]",≥ 90
3,"O=C(c1ccccc1OC(F)(F)F)N1CCc2cnc(N3CCN(C4CCC4)CC3)nc2CC1 [Compound 412, 2-(4-cyclobutylpiperazin-1-yl)-7-[2-(trifluoromethoxy)benzoyl]-6,7,8,9-tetrahydro-5H-pyrimido[4,5-d]azepine]",≥ 90
4,"COc1cc(OC)cc(C(=O)N2CCc3cnc(N4CCN(C5CCC5)CC4)nc3CC2)c1 [Compound 381, 2-(4-cyclobutylpiperazin-1-yl)-7-(3,5-dimethoxybenzoyl)-6,7,8,9-tetrahydro-5H-pyrimido[4,5-d]azepine]",≥ 90
5,"COc1ccccc1/C=C/C(=O)N1CCc2cnc(N3CCN(C4CCC4)CC3)nc2CC1 [Compound 568, 2-(4-cyclobutylpiperazin-1-yl)-7-[(2E)-3-(2-methoxyphenyl)prop-2-enoyl]-6,7,8,9-tetrahydro-5H-pyrimido[4,5-d]azepine]",≥ 90
6,"O=C(c1ccc(-n2cccc2)nc1)N1CCc2cnc(N3CCN(C4CCC4)CC3)nc2CC1 [Compound 480, 2-(4-cyclobutylpiperazin-1-yl)-7-{[6-(1H-pyrrol-1-yl)pyridin-3-yl]carbonyl}-6,7,8,9-tetrahydro-5H-pyrimido[4,5-d]azepine]",≥ 90
7,"Cc1c(C(=O)N2CCc3cnc(N4CCN(C5CCC5)CC4)nc3CC2)cnn1-c1ccccc1 [Compound 504, 2-(4-cyclobutylpiperazin-1-yl)-7-[(5-methyl-1-phenyl-1H-pyrazol-4-yl)carbonyl]-6,7,8,9-tetrahydro-5H-pyrimido[4,5-d]azepine]",≥ 90
8,"COc1ccc(C(=O)N2CCc3cnc(N4CCN(C5CCC5)CC4)nc3CC2)c(OC)c1 [Compound 431, 2-(4-cyclobutylpiperazin-1-yl)-7-(2,4-dimethoxybenzoyl)-6,7,8,9-tetrahydro-5H-pyrimido[4,5-d]azepine]",≥ 90

# Same assay, conditions: 1 h; assay of Example 8; symbol "!" in column headed Ki; read-out: percent inhibition of agonist-induced GTP-gammaS binding to H3
row,SMILES,inhibition at 4 µM [%]
1,"O=C(Cc1ccccc1Oc1ccccc1)N1CCc2cnc(N3CCN(C4CCC4)CC3)nc2CC1 [Compound 304, 2-(4-cyclobutylpiperazin-1-yl)-7-[(2-phenoxyphenyl)acetyl]-6,7,8,9-tetrahydro-5H-pyrimido[4,5-d]azepine]",≥ 90
2,"CC(Oc1cccc(Cl)c1)C(=O)N1CCc2cnc(N3CCN(C4CCC4)CC3)nc2CC1 (centres unmarked) [Compound 340, 7-[2-(3-chlorophenoxy)propanoyl]-2-(4-cyclobutylpiperazin-1-yl)-6,7,8,9-tetrahydro-5H-pyrimido[4,5-d]azepine]",≥ 90
3,"O=C(Cc1c(F)cccc1Cl)N1CCc2cnc(N3CCN(C4CCC4)CC3)nc2CC1 [Compound 298, 7-[(2-chloro-6-fluorophenyl)acetyl]-2-(4-cyclobutylpiperazin-1-yl)-6,7,8,9-tetrahydro-5H-pyrimido[4,5-d]azepine]",≥ 90
4,"c1nc2c(c(N3CCN(C4CCC4)CC3)n1)CCN(CC1CCOCC1)CC2 [Compound 271, 4-(4-cyclobutylpiperazin-1-yl)-7-(tetrahydro-2H-pyran-4-ylmethyl)-6,7,8,9-tetrahydro-5H-pyrimido[4,5-d]azepine]",≥ 90
5,"CCC(CC)(C(=O)N1CCc2cnc(N3CCN(C4CCC4)CC3)nc2CC1)c1ccccc1 [Compound 350, 2-(4-cyclobutylpiperazin-1-yl)-7-(2-ethyl-2-phenylbutanoyl)-6,7,8,9-tetrahydro-5H-pyrimido[4,5-d]azepine]",≥ 90
6,"Fc1cccc(CN2CCc3cnc(N4CCN(C5CCC5)CC4)nc3CC2)c1 [Compound 231, 2-(4-cyclobutylpiperazin-1-yl)-7-(3-fluorobenzyl)-6,7,8,9-tetrahydro-5H-pyrimido[4,5-d]azepine]",≥ 90
7,"O=C(Cc1ccccc1OCc1ccccc1)N1CCc2cnc(N3CCN(C4CCC4)CC3)nc2CC1 [Compound 314, 7-{[2-(benzyloxy)phenyl]acetyl}-2-(4-cyclobutylpiperazin-1-yl)-6,7,8,9-tetrahydro-5H-pyrimido[4,5-d]azepine]",≥ 90
8,"COc1ccc(CC(=O)N2CCc3cnc(N4CCN(C5CCC5)CC4)nc3CC2)cc1 [Compound 274, 2-(4-cyclobutylpiperazin-1-yl)-7-[(4-methoxyphenyl)acetyl]-6,7,8,9-tetrahydro-5H-pyrimido[4,5-d]azepine]",≥ 90

# Same assay, conditions: symbol ! in Ki; test compound 4 μM, 1 μM histamine; read-out: percent inhibition of agonist-induced GTP-gammaS binding to H3
row,SMILES,inhibition at 4 µM [%]
1,"COCCC(=O)N1CCc2c(ncnc2N2CCN(C3CCC3)CC2)C1 [Compound 51, 4-(4-cyclobutylpiperazin-1-yl)-7-(3-methoxypropanoyl)-5,6,7,8-tetrahydropyrido[3,4-d]pyrimidine]",≥ 90
2,"c1ccc2nc(CN3CCc4nc(N5CCN(C6CCC6)CC5)ncc4C3)ccc2c1 [Compound 639, 2-(4-cyclobutylpiperazin-1-yl)-6-(quinolin-2-ylmethyl)-5,6,7,8-tetrahydropyrido[4,3-d]pyrimidine]",≥ 90
3,"CCC(C)CN1CCc2c(ncnc2N2CCN(C3CCC3)CC2)C1 (centres unmarked) [Compound 87, 4-(4-cyclobutylpiperazin-1-yl)-7-(2-methylbutyl)-5,6,7,8-tetrahydropyrido[3,4-d]pyrimidine]",≥ 90
4,"CCN(CC)C1CCN(c2ncnc3c2CCN(Cc2ccccc2)C3)C1 (centres unmarked) [Compound 15, 1-(7-benzyl-5,6,7,8-tetrahydropyrido[3,4-d]pyrimidin-4-yl)-N,N-diethylpyrrolidin-3-amine]",≥ 90
5,"CC(C)CCC(=O)N1CCc2c(ncnc2N2CCN(C3CCC3)CC2)C1 [Compound 46, 4-(4-cyclobutylpiperazin-1-yl)-7-(4-methylpentanoyl)-5,6,7,8-tetrahydropyrido[3,4-d]pyrimidine]",≥ 90
6,"O=C(c1cccnc1)N1CCc2c(ncnc2N2CCN(C3CCC3)CC2)C1 [Compound 34, 4-(4-cyclobutylpiperazin-1-yl)-7-(pyridin-3-ylcarbonyl)-5,6,7,8-tetrahydropyrido[3,4-d]pyrimidine]",≥ 90
7,"CCC(C)C(C)N1CCc2c(ncnc2N2CCN(C3CCC3)CC2)C1 (centres unmarked) [Compound 122, 4-(4-cyclobutylpiperazin-1-yl)-7-(1,2-dimethylbutyl)-5,6,7,8-tetrahydropyrido[3,4-d]pyrimidine]",≥ 90
8,"c1cc(N2CCOCC2)ncc1CN1CCc2nc(N3CCN(C4CCC4)CC3)ncc2C1 [Compound 621, 2-(4-cyclobutylpiperazin-1-yl)-6-[(6-morpholin-4-ylpyridin-3-yl)methyl]-5,6,7,8-tetrahydropyrido[4,3-d]pyrimidine]",≥ 90
9,"Clc1ccc(CN2CCc3c(ncnc3N3CCN(C4CCC4)CC3)C2)c(Cl)c1 [Compound 99, 4-(4-cyclobutylpiperazin-1-yl)-7-(2,4-dichlorobenzyl)-5,6,7,8-tetrahydropyrido[3,4-d]pyrimidine]",≥ 90

# Same assay, conditions: test compound 4 μM, 1 μM histamine; read-out: percent inhibition of agonist-induced GTP-gammaS binding to H3
row,SMILES,inhibition at 4 µM [%]
1,"c1ccc(CN2CCc3c(ncnc3N3CCN(C4CCC4)CC3)C2)cc1 [Compound 1, 7-Benzyl-4-(4-cyclobutylpiperazin-1-yl)-5,6,7,8-tetrahydropyrido[3,4-d]pyrimidine]",≥ 90
